In patent publication US10213428B2, “(4-((3R,4R)-3-methoxytetrahydro-pyran-4-ylamino)piperidin-1-yl)(5-methyl-6-(((2R,6S)-6-(p-tolyl)tetrahydro-2H-pyran-2-yl)methylamino)pyrimidin-4-yl)methanone citrate” (Centrexion Therapeutics Corporation, priority 2015, dated 2019):

Key:
[1] = Oral pharmacokinetics in dog; type: in vivo, beagle dogs; settings: oral dose 5 μmol/kg
From the text: (§1) The pharmacokinetics of the test compound following single intravenous (IV) or oral (PO) doses were examined in • female BALB/c mice (average weight: 25 g) • male Wistar(Han) rats (average weight: 260 g) • male and female Göttingen Minipigs (average weight: 24 kg) • male beagle dogs (average weight: 15 kg) All non-rodent species were fasted overnight prior to dosing, while mice and rats had food and water available ad libitum. The p.o. dose of the compound was usually administered as suspension in 0.5% Natrosol or as a 0.5% Natrosol/0.015% Tween 80 suspension. For i.v. dosing purposes, the doses were applied as a solution in 0.9% NaCL, or as a solution containing 9.1% HP-beta Cyclodextrin in water.
(§2) Blood was collected by venous sampling and soaking of the blood in EDTA coated tubes. Samples were collected for up to 48 h after administration of the test compound. Plasma was then separated by centrifugation (5 min by approximately 9000 g at 4° C.). For determination of the test compound, plasma was transferred into PCR plates. All samples were stored at approximately −20° C. until bioanalytics. The test compound concentrations in plasma were determined by HPLC MS/MS. The lower limit of quantification was between 0.5 nmol/L and 1 nmol/L.

[2] = Oral pharmacokinetics in rat; type: in vivo, Wistar(Han) rats; settings: oral dose 20 μmol/kg of compound I
From the text: as §1, §2

[3] = Oral pharmacokinetics in mouse; type: in vivo, BALB/c mice; settings: oral dose 20 μmol/kg
From the text: as §1, §2

[4] = In vitro plasma protein binding (equilibrium dialysis), rat; type: in vitro ADME; settings: pH 7.4, dialysis 2 hours at 37° C., read-out: Fraction bound (converted)
Procedure: (§3) Dianorm Teflon dialysis cells (micro 0.2) are used. Each cell consists of a donor (i.e., buffer chamber) and an acceptor chamber (i.e., plasma chamber), separated by an ultrathin semipermeable membrane with a 5 kDa molecular weight cutoff. Stock solutions for each test compound are prepared in DMSO at 1 mM and diluted to a final concentration of 1.0 μM. Aliquots of 200 μL dialysis buffer (100 mM potassium phosphate, pH 7.4) are dispensed into the buffer chamber. Aliquots of 200 μL test compound dialysis solution are dispensed into the plasma chambers. Incubation is carried out for 2 hours under rotation at 37° C. Then, the dialysate is transferred into reaction tubes. The tubes for the buffer fraction contain 0.2 mL acetonitril/water (80/20 volume/volume). Aliquots of 25 μL of the plasma dialysate are transferred into deep well plates and mixed with 25 μL acetonitril/water (80/20 volume/volume), 25 μL buffer, 25 μL calibration solution and 25 μL Internal Standard solution. Protein precipitation is done by adding 200 μL acetonitrile. Aliquots of 50 μL of the buffer dialysate are transferred into deep well plates and mixed with 25 μL blank plasma, 25 μL Internal Standard solution and 200 μL acetonitril. Percent bound is calculated with the formula: % bound=(plasma concentration−buffer concentration/plasma concentration)×100.

[5] = tested on: plasma protein; assay: as above; type: in vitro ADME; settings: 1.0 μM, dialysis 2 hours at 37° C.
Procedure: as §3

[6] = Intravenous pharmacokinetics in mouse; type: in vivo, BALB/c mice; settings: IV dose 10 μmol/kg, mean values
From the text: as §1, §2

[7] = X-ray powder diffraction: crystallinity and polymorphism; type: physicochemical
From the text: X-ray powder diagrams were generated using a STOE-STADI P-diffractometer in transmission mode fitted with a MYTHEN-detector and a Cu-anode as X-ray source with monochromatic CuKα1 radiation (λ=1.54056 Å, 40 kV, 40 mA).

[8] = In vitro plasma protein binding (equilibrium dialysis), dog; type: in vitro ADME; settings: pH 7.4, dialysis 2 hours at 37° C., read-out: Fraction bound (converted)
Procedure: as §3

[9] = tested on: plasma protein; assay: as above; type: in vitro ADME; settings: 1.0 μM, dialysis 2 hours at 37° C.
Procedure: as §3

[10] = Intravenous pharmacokinetics in rat; type: in vivo, Wistar(Han) rats; settings: IV dose 5 μmol/kg, mean values
From the text: as §1, §2

[11] = In vitro metabolic stability in hepatocyte incubations, rat; type: in vitro ADME; settings: hepatocytes (suspension); Rat; predicted from hepatocyte CL intrinsic, well stirred model; read-out: CL, in vivo
Procedure: (§4) Metabolic degradation of the test compound is assayed in a hepatocyte suspension. Hepatocytes are incubated in an appropriate buffer system. Following a (typically) 30 min preincubation in an incubator (37° C., 10% CO2) 5 μL of test compound solution (1 μM) are added into 395 μL hepatocyte suspension (cell density in the range 0.25-5 Mio cells/mL, typically 1 Mio cells/mL, final DMSO concentration 0.05%). The cells are incubated for six hours (incubator, orbital shaker) and samples (25 μL) are taken at 0, 0.5, 1, 2, 4 and 6 hours. Samples are transferred into acetonitrile and pelleted by centrifugation (5 min). The supernatant is transferred to a new 96-deepwell plate, evaporated under nitrogen and resuspended. Decline of parent compound is analyzed by HPLC-MS/MS. CLint is calculated as follows CL_INTRINSIC=Dose/AUC=(CO/CD)/(AUD+clast/k)×1000/60. […]

[12] = tested on: hepatocytes; assay: as above; type: in vitro ADME; settings: Rat hepatocytes, 1 μM
Procedure: as §4

[13] = male, beagle, plasma, 5 umol/kg, mean values
[14] = male, Wistar(Han), plasma, 20 umol/kg, mean values
[15] = female, BALB/c, plasma, 20 umol/kg, mean values
[16] = female, BALB/c, plasma, 10 umol/kg
[17] = male, Wistar(Han), plasma, 5 umol/kg

CO[C@H]1COCC[C@H]1NC1CCN(C(=O)c2ncnc(NC[C@H]3CCC[C@@H](c4ccc(C)cc4)O3)c2C)CC1 [compound I, (4-((3R,4R)-3-methoxytetrahydro-pyran-4-ylamino)piperidin-1-yl)(5-methyl-6-(((2R,6S)-6-(p-tolyl)tetrahydro-2H-pyran-2-yl)methylamino)pyrimidin-4-yl)methanone]
AUC(0-inf) [1, 13]: 1.5 µM·h
Cmax [1, 13]: 317 nM
Tmax [1, 13]: 0.917 h
MRTtot ([1]; mean values): 5.77 h
F ([1]; oral bioavailability): 25%
AUC(0-inf) [2, 14]: 2.27 µM·h
Cmax [2, 14]: 580 nM
Tmax [2, 14]: 1.5 h
MRTtot ([2]; mean values): 5.49 h
F ([2]; oral bioavailability): 38%
AUC(0-inf) [3, 15]: 3.16 µM·h
Cmax [3, 15]: 974 nM
Tmax [3, 15]: 1 h
MRTtot ([3]; mean values): 3.99 h
F ([3]; oral bioavailability): 79%
fraction unbound at 2 h, 1 μM [4]: 0.311
Fraction unbound [5]: 31.1%
MRTdisp [6]: 0.623 h
AUC(0-inf) [6, 16]: 1.99 µM·h
clearance [6, 16]: 86 mL/min/kg
Vd ([6]; female, BALB/c, plasma, 10 umol/kg, read-out: Vss): 3.29 L/kg
crystallinity [7]: amorphous material
fraction unbound at 2 h, 1 μM [8]: 0.296
Fraction unbound [9]: 29.6%
MRTdisp [10]: 1.49 h
AUC(0-inf) [10, 17]: 1.49 µM·h
clearance [10, 17]: 56.1 mL/min/kg
Vd ([10]; male, Wistar(Han), plasma, 5 umol/kg, read-out: Vss): 5.04 L/kg
CLhep predicted at 1 μM [11]: 26 mL/min/kg
CL intrinsic, in vitro [12]: 8.77 μL/min/10e6 cells
